Test system: ROCK
Assay: ROCK Activity Assay Kit on HTM cell lysates treated with ROCK activator or inhibitor
Format: biochemical, human
Conditions: for relative ROCK activity normalized to the no drug treated cell lysate: HTM cell lysate
Protocol: The ROCK Activity Assay Kit is an enzyme immunoassay developed for detection of the specific phosphorylation of MYPT1 at Thr696 by ROCK. A strip-well microtiter plate is precoated with a recombinant MYPT1. After incubating the substrate wells with ROCK samples, the phosphorylated MYPT1 is detected by an anti-phospho-MYPT1 (Thr696) antibody.
Human trabecular meshwork cells were seeded into 12-well plates at the density of 500,000 cells per well. 48 hours after seeding, cells were harvested with cell lysis buffer. Cell lysates were treated with ROCK activator or ROCK inhibitor before incubating with precoated strip-wells. The ROCK activity was then measured with the protocol of the kit. Three chemicals were used to activate ROCK: S1P (Sphingosine-1 phosphate at 1 μM), LPA (Oleoyl L-lysophosphatidic acid at 10 μM) and DMOG (Dimethyloxalylglycine at 0.5 mM). […] Data was presented as relative ROCK activity normalized to the no drug treated cell lysate.

COC(=O)CNC(=O)C(=O)OC [DMOG, Dimethyloxalylglycine]
relative ROCK activity normalized to the no drug treated cell lysate (DMOG at 0.5 mM): increased

CCCCCCCCCCCCC/C=C/[C@@H](O)[C@@H](N)COP(=O)(O)O [S1P, Sphingosine-1 phosphate]
relative ROCK activity normalized to the no drug treated cell lysate (S1P at 1 μM): increased

C[C@@H](N)[C@H]1CC[C@H](C(=O)Nc2ccncc2)CC1 [Y-27632]
relative ROCK activity normalized to the no drug treated cell lysate (Y-27632 at 50 μM): decreased

Oleoyl L-lysophosphatidic acid [LPA]
rank among the chemical ROCK activators (LPA 10 μM compared with S1P 1 μM and DMOG 0.5 mM): most potent activator | relative ROCK activity normalized to the no drug treated cell lysate (LPA at 10 μM): increased

Reference: US20240100193A1, “Self-complementary AAV vectors carrying dominant negative RhoA and methods of use to treat ocular diseases” (iView Therapeutics, Inc., priority 2022, published 2024)
